In assay [1] the test system is 87 PDX models of various histotypes. As to the kind of experiment: 3D clonogenic assay, Example 1, all PDX models. In kind it is cell-based. As to the method: (§1) In the present study, plinabulin was characterized for its ability to inhibit anchorage independent growth and ex vivo colony formation of tumor cells in semi-solid medium. The compound was investigated in 87 out of 93 originally planned tumor xenografts representing all major cancer types using a 3D clonogenic assay in a 96-well format with colony count based on image analysis as read-out. By using this assay, the investigational compound was assessed for the ability to inhibit anchorage independent growth and ex vivo colony formation of tumor cells in semi-solid medium.
A master stock solution of plinabulin was prepared by dissolving the compound in DMSO at a concentration of 9.9 mM. Working stock solutions were prepared by diluting the master stock solution with DMSO to a concentration of 0.99 mM (330-fold the highest test concentration). Small aliquots of the master and working stock were stored at −20° C. On each day of an experiment, an aliquot of the working stock was used and stored at room temperature prior to and during treatment. All liquid handling steps were performed using a Tecan Freedom EVO 200 robotic platform. First, serial dilutions of the working stock solution were done in DMSO. The DMSO dilutions were then diluted 1:22 into cell culture medium (IMDM, supplemented with 20% (v/v) fetal calf serum, and 50 μg/ml gentamicin) in an intermediate dilution plate. Finally, 10 μl taken from the intermediate dilution plate were transferred to 140 μl/well of the final assay plate. Thus, the DMSO working stock was diluted 1:330, and the DMSO concentration in the assay was 0.3% v/v in all wells.
Plinabulin was investigated in 87 PDX models representing a number of cancer types. Tumors were passaged as subcutaneous xenografts in NMRI nu/nu mice. At a tumor volume of 400-1000 mm^3 tumor-bearing mice were euthanized and tumors were collected under sterile conditions without delay according to relevant SOPs and the relevant animal welfare guidelines published by the FELASA and the GV-SOLAS. Tumors were mechanically disaggregated and subsequently incubated with an enzyme cocktail consisting of collagenase type IV (41 U/ml), DNase I (125 U/ml), hyaluronidase type III (100 U/ml), and dispase II (1 U/ml) in RPMI 1640 medium (Life Technologies) at 37° C. for 60-120 minutes. Cells were passed through sieves of 100 μm and 40 μm mesh size (Cell Strainer, BD Falcon™), and washed with RPMI 1640 medium (Biochrom). The percentage of viable cells was determined in a Neubauer-hemocytometer using trypan blue exclusion. Aliquots of the cells were frozen down and stored in a liquid nitrogen vapor phase. On each day of an experiment, a frozen aliquot of tumor cells was thawed and used for the preparation of assay plates.
The clonogenic assay was carried out in a 96 well plate format using ultra low attachment plates. For each test, cells were prepared as described above and assay plates were prepared as follows: each test well contained a layer of semi-solid medium with tumor cells (50 μl), and a second layer of medium supernatant with or without test compound (100 μl). The cell layer consisted of 2.5-12.5×10^3 tumor cells per well, which were seeded on day 0 (d0) in 50 μl/well cell culture medium (IMDM, supplemented with 20% (v/v) fetal calf serum, 50 μg/ml gentamicin, and 0.4% (w/v) agar). After 24 h, the soft-agar layer was covered with 90 μl of the same culture medium without agar. Seven days after seeding 10 μl of test compound or control medium was added, and left on the cells for 24 h. Every 96 well plate included six DMSO-treated control wells and drug-treated wells in duplicate at 9 concentrations. After the incubation time of 24 h the supernatant (90 μl medium without agar +10 μl compound/control) was changed against drug free medium and incubated until the end of the study. Cultures were incubated at 37° C. and 7.5% CO2 in a humidified atmosphere 13 days in total and monitored closely for colony growth using an inverted microscope. […]

The subject of a further assay is soft tissue sarcoma. As to the kind of experiment: 3D clonogenic assay, Example 1, soft tissue sarcoma. Format: cell-based. The settings on record: n=10 models. As to the method:
as §1
A master stock solution of plinabulin was prepared by dissolving the compound in DMSO at a concentration of 9.9 mM. Working stock solutions were prepared by diluting the master stock solution with DMSO to a concentration of 0.99 mM (330-fold the highest test concentration). Small aliquots of the master and working stock were stored at −20° C. […]
Plinabulin was investigated in 87 PDX models representing a number of cancer types. […] The percentage of viable cells was determined in a Neubauer-hemocytometer using trypan blue exclusion. […]
The clonogenic assay was carried out in a 96 well plate format using ultra low attachment plates. […] Cultures were incubated at 37° C. and 7.5% CO2 in a humidified atmosphere 13 days in total and monitored closely for colony growth using an inverted microscope. […]

“And” between values parts separate entries of the source, which are not always exact repeats. Identical values can stand only once.

`CC(C)(C)c1[nH]cnc1/C=c1\[nH]c(=O)/c(=C/c2ccccc2)[nH]c1=O` [plinabulin, (3Z,6Z)-3-Benzylidene-6-{[5-(2-methyl-2-propanyl)-1H-imidazol-4-yl]methylene}-2,5-piperazinedione]: in assay [1] (87 PDX models), the “Sensitive Tumors, Number, Based on Abs. IC70” value is 40 out of 87 and 40/87; the “Sensitive Tumors, Number, Based on Rel. IC70” value was 23/87; the “Sensitive Tumors, Percentage, Based on Abs. IC70” value is 46%; the “Sensitive Tumors, Percentage, Based on Rel. IC70” value amounted to 26%. Moreover, the “geometric mean absolute IC70, tumor colony formation” value in assay [1] (all 87 PDX models, 24 h treatment, 13 days culture) was determined as 166 nM. For the same compound, in assay [1] (geometric means), the “Fold difference of IC70 of sensitive tumors vs. all tumors, Based on Abs. IC70” value amounted to 6.8 fold and the “Fold difference of IC70 of sensitive tumors vs. all tumors, Based on Rel. IC70” value stood at 4.6 fold. The “inhibition of tumor colony formation (in words)” value in assay [1] (sigmoidal concentration-effect curves) is on record as “inhibited tumor colony formation in a concentration-dependent manner in almost all cell lines”. In addition, the “geom. mean absolute IC70” value with soft tissue sarcoma came to 57 nM.

(Values after US20240408082A1, “METHODS FOR TREATING CANCERS AND TUMORS” (BEYONDSPRING PHARMACEUTICALS, INC., priority 2021, published 2024).)
